These are literature values, as cited in patent US6969706B1, “Preserved pharmaceutical compositions comprising cyclodextrins” (Allergan, Inc., priority 2004, dated 2005).

The data set concerns a number of pathogens. The note with it: HPβCD solutions; reported by Loftsson et al. 1992.

With `N=C(NCCCCCCNC(=N)NC(=N)Nc1ccc(Cl)cc1)NC(=N)Nc1ccc(Cl)cc1.O=C(O)[C@H](O)[C@@H](O)[C@H](O)[C@H](O)CO.O=C(O)[C@H](O)[C@@H](O)[C@H](O)[C@H](O)CO` [chlorhexidine gluconate], the “preservative activity in the presence of 2-hydroxypropyl-β-cyclodextrin” value (“preservative activity in the presence” below) was “did possess preservative activity”. As for `COC(=O)c1ccc(O)cc1` [methylparaben], the “preservative activity in the presence” value is recorded as “significantly reduced preservative activity”. On to `CCCOC(=O)c1ccc(O)cc1` [propylparaben], for which the “preservative activity in the presence” value is on record as “significantly reduced preservative activity”. benzalkonium chloride: the “preservative activity in the presence” value is recorded as “did possess preservative activity”.
